Where two headings read alike, the source gives them in different places.
Legend:
[1] = biological target: T1, EsaR (Pantoea stewartii subsp. stewartii, UniProt P54293); assay: cell-based; details: for EsaR agonism at 100 μM (bound stated in text): E. coli EsaR reporter; for activation at 100 µM / inhibition at 100 µM: 3.5 h; for activation at 100 µM: read-out: EsaR-activated (pesaS) [%] agonism; for inhibition at 100 µM: read-out: EsaR-activated (pesaS) antagonism
T1 construct: expressed in transfected cells; host or cells: E. coli JLD271 (K12 ΔsdiA), arabinose-induced pJN105-esaR
Source text: (§1) EsaR transcriptional activation and repression were examined using E. coli and P. stewartii reporters (strains and plasmids listed in Table S1; see Methods section for assay details). […] We constructed reporters in E. coli based on previously reported EsaR reporters (Table S1). Each strain contained an EsaR expression plasmid (pJN105-esaR) and a reporter plasmid with either an EsaR-activated promoter (pesaS) or an EsaR-repressed promoter (pesaR) upstream of luxABCDE or GFP.
(§2) Gibson assembly was used to create all constructs. Plasmid pJN105-esaR was created by amplifying esaR from pAC-esaR and inserting it into pJN105. pesaSlux was created by inserting pesaS, amplified from pPesaR-AC:gfp, into the pCS-pesaRlux backbone. The pesaR promoter was amplified from pCS-pesaRlux and inserted into the pPesaR-AC:gfp backbone to create pesaR:GFP. P. stewartii reporter strains were created by transforming pesaR:GFP or pPesaR-AC:gfp into ESN51 by conjugation using E. coli S17 λpir as the donor strain. See SI for details of E. coli ExpR2 reporter construction.
(§3) Overnight cultures were diluted 1:10 in LB medium with appropriate antibiotics and grown at 37 °C (200 rpm) to an OD600 of 0.22–0.27 before induction with 4 mg mL^–1 arabinose. OD600 was measured by placing 200 μL of culture into a 96-well plate and reading optical density using the BioTek Synergy 2 plate reader. Assays were performed in technical triplicate in clear-bottom, white and clear-bottom, black 96-well microtiter plates (Corning Costar 3903 and 3904) for luminescence and fluorescence reporters, respectively. Compounds were dissolved in DMSO, and 2 μL of this stock, or DMSO as a negative control, was added to each well prior to adding 198 μL of induced culture. Plates were incubated at 37 °C (200 rpm) for 3.5 h. Each well was mixed by pipetting before reading OD600 and either luminescence or fluorescence. Single-point screens were performed with one or two biological replicates, and all dose–response curves were performed in biological triplicate. EC50 values were calculated based on a nonlinear regression of log(concentration) vs response (three parameters) using GraphPad Prism 9 software.

[2] = test system: ExpR2; details: cited from earlier work; for ExpR2 [%] (agonism, percent activation): compounds at 200 μM, cellulase activity in P. versatile AC5099, ref Palmer et al., 2011 (main ref 44, SI ref 6); for ExpR2 antagonism (percent inhibition): 5 µM compound against 5 µM OHHL, negative values indicate potential activators, ref 6 (SI; Palmer et al., 2011)
[3] = biological target: T1, EsaR; assay: cell-based; details: for activation at 100 µM / inhibition at 100 µM: 3.5 h; for activation at 100 µM: read-out: EsaR-repressed (pesaR) [%] agonism; for inhibition at 100 µM: read-out: EsaR-repressed (pesaR) antagonism
Source text: as §1, §2, §3

[4] = test system: LuxR; details: cited from earlier work; for LuxR [%] (agonism, activation): compounds at 200 μM, luminescence in V. fischeri ES114 (ΔluxI), ref Palmer et al., 2011 (main ref 44, SI ref 6); for LuxR antagonism: 5 µM compound against 5 µM OHHL, negative values indicate potential activators, ref 6 (SI; Palmer et al., 2011)
[5] = test system: ExpR1; details: cited from earlier work; for ExpR1 [%] (agonism, activation): compounds at 200 μM, cellulase activity in P. versatile AC5117, ref Palmer et al., 2011 (main ref 44, SI ref 6); for ExpR1 antagonism: 5 µM compound against 5 µM OHHL, negative values indicate potential activators, ref 6 (SI; Palmer et al., 2011)

T1 sequence (P54293 whole entry): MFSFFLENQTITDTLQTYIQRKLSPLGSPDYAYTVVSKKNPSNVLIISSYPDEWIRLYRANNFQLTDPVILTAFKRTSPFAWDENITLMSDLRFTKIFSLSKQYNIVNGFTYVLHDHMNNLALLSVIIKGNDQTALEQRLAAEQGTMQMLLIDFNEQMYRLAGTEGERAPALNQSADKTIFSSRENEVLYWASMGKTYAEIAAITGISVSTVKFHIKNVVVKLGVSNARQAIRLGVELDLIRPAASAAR

SMILES	EsaR agonism at 100 μM (bound stated in text) [1]	ExpR2 [%] (agonism, percent activation) [2]	activation at 100 µM [1]	activation at 100 µM [3]	LuxR [%] (agonism, activation) [4]	ExpR1 [%] (agonism, activation) [5]	ExpR2 antagonism (percent inhibition) [2]	inhibition at 100 µM [1]	inhibition at 100 µM [3]	LuxR antagonism [4]	ExpR1 antagonism [5]	EC50 [1]	EC50 [3]	EsaR agonism, in words ([1]; E. coli EsaR reporters, primary screen at 100 μM)	EsaR antagonism, in words ([1]; E. coli EsaR reporters, competed against OHHL at approx. EC50)
Cc1ccc(CS(=O)(=O)N[C@H]2CCOC2=O)cc1 [GAF 13]	≤ 50%														
O=C(N[C@H]1CCOC1=O)c1ccc(Br)cc1 [B6]		7%	-4%	11%	2%	2%									
O=C(Cc1ccccc1Br)N[C@H]1CCOC1=O [C9]		32%	-2%	0.4%	12%	9%	32%	-8%	-14%	47%	49%				
CCCS(=O)(=O)N[C@H]1CCOC1=O [A8]												≥ 66 µM	≥ 71 µM		
O=C1OCC[C@@H]1NS(=O)(=O)Cc1cccc(Br)c1 [GAF 41]	≤ 50%														
O=C(Cc1ccc([N+](=O)[O-])cc1)N[C@H]1CCOC1=O [C13]		24%	14%	14%	24%	15%	32%	-29%	12%	47%	44%				
O=C(Cc1ccccc1[N+](=O)[O-])N[C@H]1CCOC1=O [C15]		19%	-10%	-1%	4%	9%	3%	-6%	0%	23%	27%				
O=C(/C=C/c1ccccc1)N[C@H]1CCOC1=O [B10]		18%	12%	-2%	3%	4%	49%	-6%	17%	48%	57%				
CSc1cccc(CC(=O)N[C@H]2CCOC2=O)c1 [E7, 3-SCH3 PHL]		13%	23%	11%	4%	0%	71%	-26%	-3%	88%	79%			nearly inactive	
O=C(Cc1ccccc1F)N[C@H]1CCOC1=O [C4]		24%	-1%	-3%	2%	8%	27%	-9%	15%	49%	44%				
CC(C)CC(=O)NC1CCCC1 [RN20]															None of these compounds antagonized EsaR
O=C(Cc1ccc(F)cc1)N[C@H]1CCOC1=O [C2]		14%	4%	-2%	2%	4%	23%	-14%	-50%	59%	64%				
CC(=O)CC(=O)N[C@H]1CCOC1=O [OBHL, reference compound]													97 µM		
CCCCCCCC(=O)CC(=O)N[C@H]1CCOC1=O [ODHL, reference compound]		48%	65%	37%	2%	6%	33%	-69%	-94%	47%	42%	≥ 65 µM	≥ 101 µM		
O=C(CCc1ccccc1)N[C@H]1CCOC1=O [B9]		12%	23%	6%	3%	4%	37%	-24%	-10%	44%	48%				

Reference: publication PMC12459020, “Chemical Probes that Target a Dissociative LuxR-Type Quorum Sensing Receptor in Gram-Negative Bacteria” (ACS Chemical Biology, 2025)
